From publication PMC9410882, “Identification of a novel deFADding activity in human, yeast and bacterial 5′ to 3′ exoribonucleases” (Nucleic Acids Research, 2022)

Key:
Xrn1 (Kl Xrn1) = biological target: T1, Xrn1 (Kl Xrn1) (Kluyveromyces lactis, UniProt Q6CJ09); experiment: inhibition of decay of […]-labelled capped RNA, gel; type: biochemical; conditions: FAD-capped or NAD-capped RNA as substrate
T1 construct: gene KLLA0_F22385g; recombinant, Ni-NTA purified

RNase AM (yciV) = biological target: T2, RNase AM (yciV) (Escherichia coli, UniProt P77766); experiment: thermal shift assay; type: binding; conditions: Mn2+-loaded enzyme; data not shown
T2 construct: gene rnm; full-length, His-tagged, expressed in E. coli BL21 (DE3) Rosetta with 2,2'-bipyridyl and MnSO4; Ni-NTA and gel filtration
T2 sequence (P77766 1-293): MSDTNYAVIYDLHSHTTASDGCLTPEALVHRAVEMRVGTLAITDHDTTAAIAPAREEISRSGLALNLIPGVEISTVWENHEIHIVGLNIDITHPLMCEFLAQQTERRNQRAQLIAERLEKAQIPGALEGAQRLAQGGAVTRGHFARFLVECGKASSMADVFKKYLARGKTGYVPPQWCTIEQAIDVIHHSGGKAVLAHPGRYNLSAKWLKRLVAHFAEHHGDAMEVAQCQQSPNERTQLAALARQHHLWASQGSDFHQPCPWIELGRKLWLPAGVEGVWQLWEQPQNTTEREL

Kl Xrn1 = biological target: T3, Kl Xrn1 (Kluyveromyces lactis, UniProt Q6CJ09 1-1245); experiment: EMSA; stable complex, minimally competed by total yeast RNA; EMSA: 10 mM Tris-HCl pH 7.5, 150 mM KCl, 1.5 mM MgCl2, 0.5 mM DTT, on ice 30 min, 5 pmol RNA with 2.5-7.5 pmol Xrn1, 6% gel in 0.5x TBE; FcRAP: 1x lysis buffer, 4 C, 90 min; conditions: protein: recombinant; tags: C-terminal 6xHis; label: 32P uniform; single strand
T3 sequence: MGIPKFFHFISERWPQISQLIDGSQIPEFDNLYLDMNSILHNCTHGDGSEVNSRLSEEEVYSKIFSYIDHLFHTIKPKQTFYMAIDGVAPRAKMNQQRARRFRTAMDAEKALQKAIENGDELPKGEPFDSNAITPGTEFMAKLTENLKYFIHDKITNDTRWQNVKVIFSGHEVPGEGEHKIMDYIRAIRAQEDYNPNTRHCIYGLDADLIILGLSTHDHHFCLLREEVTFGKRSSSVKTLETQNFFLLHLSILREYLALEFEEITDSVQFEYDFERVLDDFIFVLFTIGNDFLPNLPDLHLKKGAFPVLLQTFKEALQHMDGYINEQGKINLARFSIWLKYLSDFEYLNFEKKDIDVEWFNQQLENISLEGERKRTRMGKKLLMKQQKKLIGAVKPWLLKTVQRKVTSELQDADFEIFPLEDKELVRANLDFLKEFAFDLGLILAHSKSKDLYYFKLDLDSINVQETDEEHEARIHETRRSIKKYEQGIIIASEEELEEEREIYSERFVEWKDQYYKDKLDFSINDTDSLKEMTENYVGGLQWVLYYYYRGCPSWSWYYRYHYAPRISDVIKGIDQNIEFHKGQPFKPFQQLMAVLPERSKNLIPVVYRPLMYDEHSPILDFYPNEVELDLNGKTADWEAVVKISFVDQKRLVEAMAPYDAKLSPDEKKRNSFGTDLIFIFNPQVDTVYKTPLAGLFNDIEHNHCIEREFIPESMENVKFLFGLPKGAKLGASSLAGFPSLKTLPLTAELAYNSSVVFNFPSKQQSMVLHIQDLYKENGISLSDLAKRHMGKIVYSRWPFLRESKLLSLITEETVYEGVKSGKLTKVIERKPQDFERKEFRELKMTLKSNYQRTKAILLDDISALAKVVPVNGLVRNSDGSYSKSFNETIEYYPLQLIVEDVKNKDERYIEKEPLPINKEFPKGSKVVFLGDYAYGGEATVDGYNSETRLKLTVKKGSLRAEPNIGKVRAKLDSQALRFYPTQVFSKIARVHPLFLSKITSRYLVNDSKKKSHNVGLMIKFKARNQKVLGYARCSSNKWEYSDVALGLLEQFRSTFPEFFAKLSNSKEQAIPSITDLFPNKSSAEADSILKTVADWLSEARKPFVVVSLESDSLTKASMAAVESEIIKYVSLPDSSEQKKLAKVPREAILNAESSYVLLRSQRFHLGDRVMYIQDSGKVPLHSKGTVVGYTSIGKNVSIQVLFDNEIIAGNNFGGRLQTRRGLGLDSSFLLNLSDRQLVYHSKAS

Question: Which inhibition (Xrn1 (Kl Xrn1)) does the source give for Cc1cc2nc3c(=O)[nH]c(=O)nc-3n(C[C@H](O)[C@H](O)[C@H](O)COP(=O)(O)OP(=O)(O)OC[C@H]3O[C@@H](n4cnc5c(N)ncnc54)[C@H](O)[C@@H]3OP(=O)(O)O)c2cc1C [FAD3′P] here?
Answer: the effect was more pronounced with the FAD-capped RNA mimic, FAD3′P

Question: Cc1cc2nc3c(=O)[nH]c(=O)nc-3n(C[C@H](O)[C@H](O)[C@H](O)COP(=O)(O)OP(=O)(O)OC[C@H]3O[C@@H](n4cnc5c(N)ncnc54)[C@H](O)[C@@H]3O)c2cc1C [FAD] was tested. Which thermal shift (RNase AM (yciV)) did it give?
Answer: competent for binding FAD (as determined by thermal shift assay; data not shown)

Question: And the inhibition (Xrn1 (Kl Xrn1); free FAD)?
Answer: inhibition was nevertheless detected when using higher concentration of FAD

Question: Does AGUUGGUGGUUGUUGUGUGUUUGUGGUUGGUUUGUUUGGC (ssRNA, 5' FAD cap) [FAD-capped RNA (FAD-40)] bind (Kl Xrn1)?
Answer: binds

Question: Does AGUUGGUGGUUGUUGUGUGUUUGUGGUUGGUUUGUUUGGC (ssRNA, 5' NAD cap) [NAD-capped RNA (NAD-40)] bind (Kl Xrn1)?
Answer: binds
